Results taken from patent publication US10870635B2, “Compounds and their use as BACE1 inhibitors” (ALLGENESIS BIOTHERAPEUTICS, INC., priority 2015, dated 2020).
Like-named read-outs stand apart in the source and are kept apart here.

Columns and labels:
recombinant BACE2 = recombinant BACE2 (Homo sapiens (Human), UniProt Q9Y5Z0); assay: AnaSpec BACE2 fluorescent assay; type: biochemical
Protocol: A BACE2 activity assay kit from AnaSpec (Fremont, Calif.) was used to determine the potency of the selected compounds by AnaSpec BACE2 fluorescent assay. To each well of a black 96-well micro plate, 50 μl of the β-secretase substrate (Hylite Fluor 488) diluted 1:100 using assay buffer was first added.
The compounds were serially diluted (1:2) into DMSO from their 10 mM stock concentrations in DMSO. The serially diluted inhibitors were diluted 1:100 into 1× assay buffer in a 96-well polypropylene plate (assay dilution plate). The final concentration of these compounds tested was 300 nM, 150 nM, 75 nM, 37.5 nM, 18.75 nM, 9.375 nM, 4.688 nM, 2.344 nM, 1.172 nM, 0.586 nM, and 0.293 nM.
A volume of 10 μl of the inhibitor from the assay dilution plate, a control inhibitor LY2886721 or inhibitor vehicle was then added to each well of the black 96-well micro plate.
The recombinant BACE2 was diluted in an assay buffer and the final BACE2 was 10.6 nM. The enzyme was added in a volume of 40 μl to each well of a black 96-well micro plate.
(§1) The reagents were mixed gently and the assay plate was placed into a POLARstar fluorescent plate reader with excitation wavelength set at 485 nm and the emission wavelength set at 520 nm. The plate reader was set to take readings every 5 minutes for up to 30 minutes or a 30 minute endpoint reading was used.
An appropriate integrated first-order rate equation was used to fit the data accumulated over a 30-40 minute collection period. Dose responses for inhibitors were run in duplicate.

[1] = target: pepsin (activated recombinant human pepsinogen A) (Homo sapiens (Human), UniProt P0DJD9); assay: Pepsin activity assay; type: biochemical
Chain of pepsin (activated recombinant human pepsinogen A) (P0DJD9 63-388): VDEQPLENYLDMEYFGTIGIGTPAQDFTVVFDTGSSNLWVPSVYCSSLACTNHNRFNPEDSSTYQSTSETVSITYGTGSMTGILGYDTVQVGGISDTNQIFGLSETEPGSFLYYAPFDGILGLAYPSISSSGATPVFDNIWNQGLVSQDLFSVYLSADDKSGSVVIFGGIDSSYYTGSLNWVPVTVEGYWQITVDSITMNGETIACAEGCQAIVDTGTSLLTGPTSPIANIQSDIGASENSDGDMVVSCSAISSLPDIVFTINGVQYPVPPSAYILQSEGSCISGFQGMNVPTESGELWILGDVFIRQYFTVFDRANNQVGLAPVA
Protocol: 30 mM stocks of the experimental inhibitor compounds were prepared in DMSO. A 10 mM concentration of the inhibitor was prepared by diluting the 30 mM stock 3-fold in DMSO (30 μl of the [30 mM]:60 μl DMSO). 10-fold serial dilutions of 10 mM and 30 mM stocks were made on a dilution plate..
The pepstatin A inhibitor was received from Tocris Bioscience as 10 mg of lyophilized powder. DMSO was used to reconstitute the powder to a 10 mM concentration, which was aliquoted and stored at −20° C. A 40 μl volume of the 10 mM stock was thawed before use. 10-fold serial dilutions of 10 mM and 3 mM stocks were made in DMSO on a dilution plate.
Using a multichannel pipette, take a 2 μl volume of the diluted samples from the dilution plate into a new polypropylene 96-well plate. […]
After the enzyme addition, the substrate was added to each well in 50 μl volumes. […] The plate was immediately sealed and placed on a shaker set to 350 rpm for approximately 30 sec prior to reading in the Polar Star plate reader at room temperature with the excitation wavelength set at 320 nm, the emission wavelength set at 405 nm. Readings were taken every 41 seconds for approximately 25 minutes.
The selected BACE1 inhibitors in accordance with examples of the invention were then determined for Pepsin activity and target selectivity ratio (Pepsin IC50/BACE1 IC50).

[2] = test system: cellular production of amyloid β peptide (Aβ40) in 7PA2 CHO cells; assay: Cell amyloid-beta production assay (MSD electrochemiluminescence immunoassay); type: cell-based; settings: 12 hours incubation, read-out: Cell Abeta40 IC50
Text: Amyloid-β (Aβ) is a 33-42-amino acid post-proteolytic peptide generated as the result of the sequential cleavage of amyloid precursor protein (APP) by BACE1 and γ-secretase. Substantial evidence points to aggregation and deposition of certain isoforms of amyloid β peptide in the brain being causal to neurodegeneration and dementia typical of AD. There are two major isoforms of Aβ which are monitored as a biomarker to gain early read on Aβ aggregation: Aβ340 and Aβ342. Increased extracellular accumulation of amyloid β peptide results in the formation of amyloid β peptide oligomers, cerebral amyloid plaques, neurodegeneration, and ultimately brain atrophy, all of which play a pivotal role in AD neuropathological hallmarks.
The reagents for the cell amyloid beta production assay were prepared as follows.
7PA2 CHO cells (licensed from Dr. Dennis Selkoe's laboratory) were plated into 96-well plates at a density of 50,000 cells per […] complete medium (DMEM medium containing 10% fetal bovine serum, L-glutamine, penicillin/streptomycin and 200 μg/ml of G418). Cells were incubated for 16-18 hours in complete medium and the culture medium was aspirated and discarded. Fresh complete medium containing test articles or positive control, LY2886721, within drug concentration range from 0.01 to 100 nM or complete medium only (controls) was added for 12 hours, and the cell culture medium was assayed directly or following a dilution with complete cell culture medium and frozen at −80° C. until it could be assayed for Aβ38, Aβ40 and Aβ42 content using an MSD multiplex electrochemiluminescence immunoassay.
In the Meso Scale Discovery electrochemiluminescence immunoassay, on a block plate, add 150 μL of Diluent 35 to each well, seal the plate with an adhesive plate seal and incubate with shaking for 1 hour at room temperature. Wash and then add detection antibody solution and samples. Wash the plate 3 times with at least 150 μL/well of wash buffer. […] Add 150 μL of 2× Read Buffer T to each well. Read the plate on the MSD imager. No incubation in read buffer is required before reading the plate. […]

[3] = target: Human recombinant cathepsin D (Homo sapiens (Human), UniProt P07339); assay: Cathepsin D activity assay; type: biochemical; settings: read-out: CatD IC50
Chain of Human recombinant cathepsin D (P07339 65-412): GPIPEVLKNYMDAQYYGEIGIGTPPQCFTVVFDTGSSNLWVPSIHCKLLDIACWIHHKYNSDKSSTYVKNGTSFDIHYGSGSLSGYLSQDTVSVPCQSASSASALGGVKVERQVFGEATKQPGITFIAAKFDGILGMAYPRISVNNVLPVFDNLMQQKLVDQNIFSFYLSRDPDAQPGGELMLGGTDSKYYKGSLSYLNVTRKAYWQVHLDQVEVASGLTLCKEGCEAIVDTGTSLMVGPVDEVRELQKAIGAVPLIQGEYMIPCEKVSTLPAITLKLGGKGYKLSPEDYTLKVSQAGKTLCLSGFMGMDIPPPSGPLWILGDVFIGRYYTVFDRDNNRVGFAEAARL
Protocol: The development of a CatD activity assay is used to determine any potential cross reactivity for compounds selected from the β-secretase activity assay and to determine the selectivity to BACE1 inhibition. The CatD activity is reported for assessing target selectivity ratio (CatD IC50/BACE1 IC50).
The reagents for the cathepsin D assay were prepared as follows.
Human recombinant cathepsin D stored frozen in 2.0 μl aliquots was thawed and 42 μl of enzyme buffer (0.1M NaOAC, 0.2 M NaCl, pH 3.5) was added and incubated at 37° C. for 30 minutes. After 30 minutes the enzyme was further diluted to a final volume of 4.4 ml in enzyme buffer containing 5.0 mM DTT for immediate use in the cathepsin D assay.
The 7-methoxycoumarin-labeled peptide substrate (ES010) for cathepsin D was supplied as a 6.2 mM stock in DMSO. For use in the cathepsin D assay, the 6.2 mM stock was diluted to a 1.55 mM stock with DMSO. The 1.55 mM peptide stock in DMSO was further diluted 1:100 in reaction buffer (0.1M NaOAC, 0.2M NaCl, 0.1% Tween 20, 5.0 mM DTT, pH3.5) to create a 15.5 μM stock for use in the assay.
DMSO without compound served as a DMSO vehicle control for the cathepsin D assay. For each test compound, 30 μl of each dilution was pipetted into a separate well of a 96-well polypropylene plate. This polypropylene plate was labeled as the DMSO dilution plate and a plate map of test compound locations was made.
Test compounds from the DMSO dilution plate require a 1:100 dilution into reaction buffer before they can be added to the cathepsin D assay plate. To accomplish the 1:100 dilution of test compounds, 2.0 μl of each test compound at each concentration was pipetted from the DMSO dilution plate (using a multi-channel pipette calibrated to accurately dispense a 2.0 μl volume) into a new 96-well polypropylene plate using the plate map created for the DMSO dilution plate. This 96-well plate served as the inhibitor dilution plate. Next, 198 μl of reaction buffer was pipetted into each well of the inhibitor dilution plate (using a multi-channel pipette calibrated for accurate delivery of a 198 μl volume) and the pipetted test compound mixed by gentle up and down pipetting.
A1.0 mM stock of pepstatin A was made in DMSO and aliquotted into 5.0 μl samples for freezing and storage at −20° C. Upon thawing, 45 μl of DMSO (1:10 dilution) was added to create a 100 μM stock of pepstatin A in DMSO. The 100 μM Pepstatin A stock was further diluted 1:10 with DMSO to create a 10 μM stock in DMSO. […]
The assay plate was placed into a fluorescent plate reader with the excitation wavelength set at 320 nm and the emission wavelength set at 405 nm. Readings were collected every minute over a 30 minute collection period.

[4] = target: BACE1 (recombinant β-secretase enzyme) (Homo sapiens (Human), UniProt P56817); assay: AnaSpec BACE1 fluorescent assay (beta-secretase activity assay); type: biochemical
Chain of BACE1 (recombinant β-secretase enzyme) (P56817 46-501): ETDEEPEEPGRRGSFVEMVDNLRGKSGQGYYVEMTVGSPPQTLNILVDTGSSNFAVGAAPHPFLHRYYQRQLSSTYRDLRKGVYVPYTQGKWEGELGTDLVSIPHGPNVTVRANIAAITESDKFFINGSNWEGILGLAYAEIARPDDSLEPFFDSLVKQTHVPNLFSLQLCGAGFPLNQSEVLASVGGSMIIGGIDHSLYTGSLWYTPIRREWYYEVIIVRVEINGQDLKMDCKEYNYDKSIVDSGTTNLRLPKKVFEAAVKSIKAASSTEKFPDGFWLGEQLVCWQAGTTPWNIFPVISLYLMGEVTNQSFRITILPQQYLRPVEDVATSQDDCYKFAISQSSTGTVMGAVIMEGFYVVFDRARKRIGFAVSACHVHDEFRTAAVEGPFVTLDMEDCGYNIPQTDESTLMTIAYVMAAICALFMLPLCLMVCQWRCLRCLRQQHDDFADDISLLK
Protocol: A BACE1 activity assay kit from AnaSpec (Fremont, Calif.) was used to determine the potency of the selected BACE1 inhibitors by AnaSpec BACE1 fluorescent assay. The recombinant β-secretase enzyme was diluted 1:200 in 1× assay buffer (1 part of 1× assay buffer and 1 part of TBS containing 0.1% Tween 20). The enzyme was added in a volume of 40 μl to each well of a black 96-well micro plate.
The BACE1 inhibitors were serially diluted into DMSO from their 10 mM stock concentrations in DMSO. The serially diluted inhibitors were diluted 1:100 into 1× assay buffer in a 96-well polypropylene plate (assay dilution plate). The final concentration of the BACE1 inhibitor tested was 300 nM, 100 nM, 30 nM, 10 nM, 3 nM, 1 nM 0.3 nM, and 0.00 nM. Dose responses for inhibitors were run in duplicate.
A volume of 10 μl of the inhibitor from the assay dilution plate, a control inhibitor LY2886721 or inhibitor vehicle was then added to each well of the black 96-well micro plate containing BACE1.
as §1, with “To each well of the black 96-well micro plate, 50 μl of the β-secretase substrate (Hylite Fluor 488) diluted 1:100 using assay buffer was added. The reagents” for “The reagents”
An appropriate integrated first-order rate equation was used to fit the data accumulated over a 30-40 minute collection period.

Chain of recombinant BACE2 (Q9Y5Z0 63-518): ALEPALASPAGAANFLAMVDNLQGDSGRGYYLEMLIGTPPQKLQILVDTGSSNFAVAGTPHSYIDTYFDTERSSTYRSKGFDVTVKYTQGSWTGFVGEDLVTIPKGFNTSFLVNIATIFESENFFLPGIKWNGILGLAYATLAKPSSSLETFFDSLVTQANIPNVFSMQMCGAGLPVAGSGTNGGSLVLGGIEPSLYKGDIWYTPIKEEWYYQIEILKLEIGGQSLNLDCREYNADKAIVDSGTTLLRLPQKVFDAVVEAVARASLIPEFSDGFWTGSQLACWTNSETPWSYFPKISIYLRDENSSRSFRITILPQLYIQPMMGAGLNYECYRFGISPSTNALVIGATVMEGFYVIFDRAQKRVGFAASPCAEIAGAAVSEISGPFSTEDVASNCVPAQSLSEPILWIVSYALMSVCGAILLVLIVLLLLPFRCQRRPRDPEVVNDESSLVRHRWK

CC#Cc1ccc2sc3ccc([C@]4(C)CS(=O)(=O)C(C)(C)C(N)=N4)cc3c2c1 [Example 103, (R)-5-Amino-3,6,6-trimethyl-3-(8-(prop-1-yn-1-yl)dibenzo[b,d]thiophen-2-yl)-3,6-dihydro-2H-1,4-thiazine 1,1-dioxide]
IC50 (recombinant BACE2): 12 nM | IC50 [1]: 3140 nM | IC50 ([2]; Cricetulus griseus, CHO, 12 h): 13 nM | IC50 [3]: 17200 nM | IC50 [4]: 39 nM

CC#Cc1ccc2sc3cc(F)c([C@]4(C)CS(=O)(=O)C(C)(C)C(=N)N4)cc3c2c1 [Example 109, (R)-5-Amino-3-(3-fluoro-8-(prop-1-yn-1-yl)dibenzo[b,d]thiophen-2-yl)-3,6,6-trim ethyl-3,6-dihydro-2H-1,4-thiazine 1,1-dioxide]
IC50 (recombinant BACE2): 16 nM | IC50 [1]: 4380 nM | IC50 [2]: 5 nM | IC50 ([2]; Cricetulus griseus, CHO, 12 h): 5.5 ± 1.95 nM | IC50 [3]: 10800 nM | IC50 [4]: 25 nM
